The target of experiment [1] is T1, JAK3 enzyme (Homo sapiens, UniProt P52333).
T1 sequence (P52333 1-1124): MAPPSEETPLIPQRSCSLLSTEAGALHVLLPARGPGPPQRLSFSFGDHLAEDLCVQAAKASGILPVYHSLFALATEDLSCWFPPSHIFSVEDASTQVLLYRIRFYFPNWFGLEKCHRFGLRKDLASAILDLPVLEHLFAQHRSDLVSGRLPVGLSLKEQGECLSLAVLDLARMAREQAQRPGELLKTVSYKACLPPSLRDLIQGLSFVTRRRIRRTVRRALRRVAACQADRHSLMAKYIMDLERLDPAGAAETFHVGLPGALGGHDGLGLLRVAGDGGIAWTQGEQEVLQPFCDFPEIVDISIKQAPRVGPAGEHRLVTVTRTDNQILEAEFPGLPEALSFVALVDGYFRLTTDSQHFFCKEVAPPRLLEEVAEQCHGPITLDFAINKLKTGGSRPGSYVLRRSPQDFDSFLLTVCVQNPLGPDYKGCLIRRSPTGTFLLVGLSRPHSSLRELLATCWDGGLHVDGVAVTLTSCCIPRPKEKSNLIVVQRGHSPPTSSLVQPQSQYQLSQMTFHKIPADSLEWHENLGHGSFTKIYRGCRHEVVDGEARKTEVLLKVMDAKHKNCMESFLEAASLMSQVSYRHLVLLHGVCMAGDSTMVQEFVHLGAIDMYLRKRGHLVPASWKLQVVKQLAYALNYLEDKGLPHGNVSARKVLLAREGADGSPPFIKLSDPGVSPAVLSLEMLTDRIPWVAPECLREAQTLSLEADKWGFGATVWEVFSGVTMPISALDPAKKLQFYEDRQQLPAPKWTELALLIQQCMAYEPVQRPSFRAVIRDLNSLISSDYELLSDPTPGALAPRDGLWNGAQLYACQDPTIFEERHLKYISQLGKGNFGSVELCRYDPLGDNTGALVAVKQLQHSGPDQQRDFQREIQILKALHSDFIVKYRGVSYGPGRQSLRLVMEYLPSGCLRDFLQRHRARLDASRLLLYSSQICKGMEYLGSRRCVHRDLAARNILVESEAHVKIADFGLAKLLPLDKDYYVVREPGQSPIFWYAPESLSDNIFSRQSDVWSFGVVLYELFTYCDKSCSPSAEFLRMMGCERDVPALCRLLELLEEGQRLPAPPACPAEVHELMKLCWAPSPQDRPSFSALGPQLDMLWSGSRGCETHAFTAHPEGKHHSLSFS
The experiment is described as follows: JAK Caliper Enzyme Assay at 4 μM ATP. It counts as biochemical. In a few lines:
(§1)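 11-pt ½-log cpd titration in DMSO (top 600 μM, pre-assay); enzyme conc/incubation adjusted per prep → 20-30% peptide phosphorylation; phospho vs non-phospho peptide read by chip-based electrophoretic separation.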

Experiment [2] concerns the target T1, JAK3 enzyme. As to the kind of experiment: JAK Caliper Enzyme Assay at 1 mM ATP. It is filed as biochemical. In a few lines: as §1

From patent US10703756B2, “Pyrrolo[2,3-D]pyrimidinyl, pyrrolo[2,3-B]pyrazinyl, pyrrolo[2,3-B]pyridinyl acrylamides and epoxides thereof” (Pfizer Inc., priority 2015, dated 2020) come the findings set out here.

By IC50 is commonly meant the midpoint of a concentration-inhibition curve. A high value points to weaker potency in that assay.

As for `C=CC(=O)N1CCC(Oc2cnc3[nH]cc(C(=O)N[C@H](C(C)C)[C@@H](O)C(F)(F)F)c3n2)CC1` [Example 202, 2-[(1-acryloylpiperidin-4-yl)oxy]-N-[(2R,3R)-1,1,1-trifluoro-2-hydroxy-4-methylpentan-3-yl]-5H-pyrrolo[2,3-b]pyrazine-7-carboxamide], the results for the IC50 at JAK3 enzyme [1] and at JAK3 enzyme [2] were 5.31 nM and 697 nM, respectively.

Take `C=CC(=O)N1CC[C@H](N(C)c2cnc3[nH]cc(C(=O)NCC)c3n2)C1` (single isomer, unassigned) [Example 30]: the results for the 50% inhibitory concentration (IC50) on JAK3 enzyme [1] and against JAK3 enzyme [2] were 6.86 nM and 865 nM, respectively.

Take `C=CC(=O)N1C[C@H](CO)C[C@H](Nc2ncnc3[nH]ccc23)C1` (single isomer, unassigned) [Example 99]: the IC50 against JAK3 enzyme [1] amounted to 89.2 nM; against JAK3 enzyme [2] it was 8990 nM.

As for `C=CC(=O)N1C[C@H](CC)[C@H](Nc2cnc3[nH]cc(C(=O)NCC)c3n2)C1` [Example 241, 2-{[(3S,4S)-1-acryloyl-4-ethylpyrrolidin-3-yl]amino}-N-ethyl-5H-pyrrolo[2,3-b]pyrazine-7-carboxamide], the IC50 against JAK3 enzyme [1] stood at 3.79 nM; against JAK3 enzyme [2], 857 nM.

For the compound `C=CC(=O)N1CC[C@H](COc2cnc3[nH]cc(C(=O)N[C@H](C)COC)c3n2)C1` (single isomer, unassigned) [Example 15], the figures for the IC50 against JAK3 enzyme [1] and against JAK3 enzyme [2] were 31.4 nM and 3280 nM, respectively.

As for `C=CC(=O)N1CCN(c2cnc3[nH]cc(C(=O)N[C@@H](C)[C@H](O)c4ccccc4)c3n2)CC1(C)C` [Example 156, 2-(4-acryloyl-3,3-dimethylpiperazin-1-yl)-N-[(1R,2S)-1-hydroxy-1-phenylpropan-2-yl]-5H-pyrrolo[2,3-b]pyrazine-7-carboxamide], the IC50 is 28.9 nM on JAK3 enzyme [1] and 4090 nM against JAK3 enzyme [2].

In the case of `C=CC(=O)N1CCN(c2cnc3[nH]cc(C(=O)NC4CCOC4)c3n2)CC1(C)C` (racemic) [Example 164, Racemic-2-(4-acryloyl-3,3-dimethylpiperazin-1-yl)-N-(tetrahydrofuran-3-yl)-5H-pyrrolo[2,3-b]pyrazine-7-carboxamide], the figures for the IC50 against JAK3 enzyme [1] and against JAK3 enzyme [2] were 4.34 nM and 726 nM, respectively.

`C=CC(=O)N1CCN(c2cnc3[nH]cc(C(=O)N[C@@H](C)COCc4ccccc4)c3n2)CC1(C)C` [Example 134, 2-(4-acryloyl-3,3-dimethylpiperazin-1-yl)-N-[(2S)-1-(benzyloxy)propan-2-yl]-5H-pyrrolo[2,3-b]pyrazine-7-carboxamide]: the IC50 against JAK3 enzyme [1] was 12.4 nM; on JAK3 enzyme [2], 2530 nM.

Take `C=CC(=O)N1CCN(c2cnc3[nH]cc(C(=O)NC(CO)CCCC)c3n2)CC1(C)C` (racemic) [Example 155, Racemic-2-(4-acryloyl-3,3-dimethylpiperazin-1-yl)-N-(1-hydroxyhexan-2-yl)-5H-pyrrolo[2,3-b]pyrazine-7-carboxamide]: the IC50 at JAK3 enzyme [1] came out at 4.92 nM; against JAK3 enzyme [2], 721 nM.

For the compound `C=CC(=O)N1C[C@H](Nc2ncnc3[nH]ccc23)CC[C@H]1[C@@H](C)O` (single isomer, unassigned) [Example 110], the half-maximal inhibitory concentration (IC50) is 867 nM against JAK3 enzyme [1] and above 10000 nM at JAK3 enzyme [2].

`C=CC(=O)N1CCC(N(C)c2cnc3[nH]cc(C(=O)NCC)c3n2)C1` (racemic) [Example 28, Racemic-2-[(1-acryloylpyrrolidin-3-yl)(methyl)amino]-N-ethyl-5H-pyrrolo[2,3-b]pyrazine-7-carboxamide]: the IC50 is 13.7 nM against JAK3 enzyme [1] and 1160 nM against JAK3 enzyme [2].

Take `C=CC(=O)N1CCN(c2cnc3[nH]cc(C(=O)N[C@@H]4C[C@H]4C(F)(F)F)c3n2)CC1(C)C` [Example 290, 2-(4-acryloyl-3,3-dimethylpiperazin-1-yl)-N-[(1R,2R)-2-(trifluoromethyl)cyclopropyl]-5H-pyrrolo[2,3-b]pyrazine-7-carboxamide]: the IC50 at JAK3 enzyme [1] was determined as 20.8 nM; against JAK3 enzyme [2], 2150 nM.

Consider `C=CC(=O)N1CCN(c2cnc3[nH]cc(C(=O)N[C@H]4CCOC4)c3n2)CC1(C)C` [Example 150, 2-(4-acryloyl-3,3-dimethylpiperazin-1-yl)-N-[(3S)-tetrahydrofuran-3-yl] 5H-pyrrolo[2,3-b]pyrazine-7-carboxamide], for which the IC50 at JAK3 enzyme [1] was 8.09 nM; at JAK3 enzyme [2], 1110 nM.

As to `C=CC(=O)N1CC[C@H](Nc2cnc3[nH]cc(C(=O)NCC(F)(F)F)c3n2)C1` (single isomer, unassigned) [Example 254], the values for the IC50 at JAK3 enzyme [1] and against JAK3 enzyme [2] were 17.2 nM and 2540 nM, respectively.

Turning to `C=CC(=O)N1C[C@@H](Nc2ncnc3[nH]ccc23)CC[C@H]1COC` (single isomer, unassigned) [Example 96], the IC50 at JAK3 enzyme [1] is 433 nM; against JAK3 enzyme [2], above 10000 nM.

With `C=CC(=O)N1C[C@H](Nc2cnc3[nH]cc(C(=O)NCC)c3n2)[C@](C)(C#N)C1` [Example 251, 2-{[(3R,4R)-1-acryloyl-4-cyano-4-methylpyrrolidin-3-yl]amino}-N-ethyl-5H-pyrrolo[2,3-b]pyrazine-7-carboxamide], the IC50 came out at 5.12 nM at JAK3 enzyme [1] and 1320 nM against JAK3 enzyme [2].

In the case of `C=CC(=O)N1C[C@H](C)[C@H](Nc2cnc3[nH]cc(C(=O)NCC)c3n2)C1` (stereo in doubt) [Example 260, 2-[(1-acryloyl-4-methylpyrrolidin-3-yl)amino]-N-ethyl-5H-pyrrolo[2,3-b]pyrazine-7-carboxamide], the IC50 on JAK3 enzyme [1] was found to be 2.14 nM; on JAK3 enzyme [2], 676 nM.

Take `C=CC(=O)N1CCN(c2cnc3[nH]cc(C(=O)NCC4(O)CCC(F)(F)CC4)c3n2)CC1(C)C` [Example 291, 2-(4-acryloyl-3,3-dimethylpiperazin-1-yl)-N-[(4,4-difluoro-1-hydroxycyclohexyl)methyl]-5H-pyrrolo[2,3-b]pyrazine-7-carboxamide]: the values for the concentration for half-maximal inhibition (IC50) on JAK3 enzyme [1] and against JAK3 enzyme [2] were 15.5 nM and 1490 nM, respectively.

Turning to `C=CC(=O)N1C[C@H](Nc2ncnc3[nH]ccc23)CC[C@@H]1COC` (single isomer, unassigned) [Example 92], the IC50 came out at 20.9 nM against JAK3 enzyme [1] and 2440 nM against JAK3 enzyme [2].

Turning to `C=CC(=O)N1CCC(Oc2cnc3[nH]cc(C(=O)NCC4CC4)c3c2)CC1` [Example 343, 5-[(1-acryloylpiperidin-4-yl)oxy]-N-(cyclopropylmethyl)-1H-pyrrolo[2,3-b]pyridine-3-carboxamide], the IC50 worked out at 75.1 nM on JAK3 enzyme [1] and 4880 nM against JAK3 enzyme [2].

Regarding `C=CC(=O)N1CCC(Oc2cnc3[nH]cc(C(=O)NCCC(F)(F)F)c3c2)CC1` [Example 338, 5-[(1-acryloylpiperidin-4-yl)oxy]-N-(3,3,3-trifluoropropyl)-1H-pyrrolo[2,3-b]pyridine-3-carboxamide], the half-inhibitory concentration (IC50) is 31.4 nM against JAK3 enzyme [1] and 2780 nM on JAK3 enzyme [2].

`C=CC(=O)N1CC[C@H](CNc2cnc3[nH]cc(C(=O)N[C@H](C)COC)c3n2)C1` (single isomer, unassigned) [Example 21]: the values for the IC50 against JAK3 enzyme [1] and against JAK3 enzyme [2] were 4.69 nM and 633 nM, respectively.

Turning to `C=CC(=O)N1CCC(Oc2cnc3[nH]cc(C#N)c3n2)CC1` [Example 114, 2-[(1-Acryloylpiperidin-4-yl)oxy]-5H-pyrrolo[2,3-b]pyrazine-7-carbonitrile], the 50% inhibitory concentration (IC50) against JAK3 enzyme [1] turned out to be 19.7 nM; at JAK3 enzyme [2] it was 3810 nM.

Consider `C=CC(=O)N1CCC(Nc2cnc3[nH]cc(C(=O)NCC)c3c2)CC1` [Example 352, 5-((1-acryloylpiperidin-4-yl)amino)-N-ethyl-1H-pyrrolo[2,3-b]pyridine-3-carboxamide], for which the results for the IC50 at JAK3 enzyme [1] and on JAK3 enzyme [2] were 52.3 nM and 4500 nM, respectively.

On to `C=CC(=O)N1CC[C@@H](COc2cnc3[nH]cc(C(=O)N[C@H](C)COC)c3n2)C1` (single isomer, unassigned) [Example 14], for which the concentration for half-maximal inhibition (IC50) at JAK3 enzyme [1] stood at 54.8 nM; on JAK3 enzyme [2], 3010 nM.

Take `C=CC(=O)N1C[C@H](Nc2cnc3[nH]cc(C(=O)NCCOC)c3n2)C[C@H]1COC` [Example 258, 2-{[(3R,5S)-1-acryloyl-5-(methoxymethyl)pyrrolidin-3-yl]amino}-N-(2-methoxyethyl)-5H-pyrrolo[2,3-b]pyrazine-7-carboxamide]: the IC50 worked out at 6.23 nM at JAK3 enzyme [1] and 1050 nM against JAK3 enzyme [2].

As to `C=CC(=O)N1CCN(c2cnc3[nH]cc(C(=O)NC(CO)c4ccc(F)cc4)c3n2)CC1(C)C` (racemic) [Example 165, Racemic-2-(4-acryloyl-3,3-dimethylpiperazin-1-yl)-N-[1-(4-fluorophenyl)-2-hydroxyethyl]-5H-pyrrolo[2,3-b]pyrazine-7-carboxamide], the IC50 turned out to be 10.7 nM against JAK3 enzyme [1] and 957 nM on JAK3 enzyme [2].
